{"source": "patent US20260053861A1", "about": "“CELL COMPOSITIONS AND METHODS OF USING THE SAME” (THE REGENTS OF THE UNIVERSITY OF CALIFORNIA, priority 2022, published 2026)", "note": "Where a name gives a salt, the structure may show the parent alone."}
{"tested_on": "hPSC-SCs", "settings": "not given"}
{"smiles": "COc1ccc2c(c1)[C@]13CCCC[C@@H]1[C@H](C2)N(C)CC3", "z.score.t": 1.28}
{"smiles": "COc1cc2c(cc1OC)C(C)NCC2.Cl", "note": "(stereo not shown)", "z.score.t": 0.3024}
{"smiles": "CN1CCc2cccc3c2[C@H]1Cc1ccc(O)c(O)c1-3.CN1CCc2cccc3c2[C@H]1Cc1ccc(O)c(O)c1-3.Cl.Cl.O", "z.score.t": "−1.904"}
{"smiles": "CN(N=O)C(=O)N[C@H]1C(O)O[C@H](CO)[C@@H](O)[C@@H]1O", "note": "(mixture of isomers) [Streptozotocin]", "z.score.t": 0.03421}
{"smiles": "Cl.NCC(O)c1ccc(O)cc1", "note": "(racemic) [(+, −)-Octopamine hydrochloride]", "z.score.t": 0.6574}
{"smiles": "CNCC(O)c1ccc(O)cc1", "note": "(racemic) [(+, −)-Synephrine]", "z.score.t": "−0.2329"}
{"smiles": "O=C(O)C1CCCNC1", "note": "(racemic) [(ñ)-Nipecotic acid]", "z.score.t": "−0.7376"}
{"smiles": "NCC(CC(=O)O)c1ccc(Cl)cc1", "note": "(racemic) [Baclofen (R,S)]", "z.score.t": 1.088}
{"smiles": "Nc1c2c(nc3ccccc13)CCCC2O.O=C(O)/C=C\\C(=O)O", "note": "(racemic) [Hydroxytacrine maleate (R,S)]", "z.score.t": 0.713}
{"smiles": "COc1ccc(CC2c3cc(OC)c(OC)cc3CCN2C)cc1OC", "note": "(racemic) [Laudanosine (R,S)]", "z.score.t": "−0.3319"}
{"smiles": "CC(=O)NC1CCSC1=O", "note": "(racemic) [N-Acetyl-DL-homocysteine Thiolactone]", "z.score.t": 0.0116}
{"smiles": "CN1CCC2(C)c3cc(O)ccc3N(C)C12.O=C(O)/C=C/C(=O)O", "note": "(single isomer, unassigned; (-)) [(−)-Eseroline fumarate salt]", "z.score.t": "−1.336"}
{"smiles": "CC(=C(CCO)SSCC1CCCO1)N(C=O)Cc1cnc(C)nc1N", "note": "(stereo in doubt) [Fursultiamine Hydrochloride]", "z.score.t": 1.483}
{"smiles": "C[C@]12CC[C@@H](O)C[C@H]1CC[C@@H]1[C@@H]2CC[C@]2(C)C(=O)CC[C@@H]12", "note": "[3-alpha-Hydroxy-5-beta-androstan-17-one]", "z.score.t": "−0.1014"}
{"smiles": "CN1C2CC(=O)CC1C(O)C2", "note": "(stereo not shown) [6-Hydroxytropinone]", "z.score.t": "−0.3867"}
{"smiles": "COc1ccc2c(c1OC)CN1CCc3cc4c(cc3C1C2)OCO4", "note": "(stereo not shown) [(d,l)-Tetrahydroberberine]", "z.score.t": 2.041}
{"smiles": "CCN1C[C@]2(COC)[C@H](O)C[C@H](OC)[C@@]34[C@@H]5C[C@@]6(O)[C@H](OC(=O)c7ccccc7)[C@@H]5[C@@](OC(C)=O)([C@@H]([C@H](OC)[C@H]23)[C@@H]14)[C@@H](O)[C@@H]6OC", "note": "[Aconitine]", "z.score.t": "−0.2486"}
{"smiles": "Nc1ncnc2c1ncn2[C@@H]1O[C@H](COP(=O)(O)O)[C@@H](O)[C@H]1O.O", "note": "[Adenosine 5′-monophosphate monohydrate]", "z.score.t": 1.049}
{"smiles": "C[C@]12CCC(=O)C=C1CC[C@@H]1[C@@H]2C(=O)C[C@]2(C)C(=O)CC[C@@H]12", "note": "[Adrenosterone]", "z.score.t": 1.101}
{"smiles": "CC[C@H]1[C@@H]2C[C@H]3[C@@H]4N(C)c5ccccc5[C@]45C[C@@H]([C@H]2[C@H]5O)N3[C@@H]1O", "note": "[Ajmaline]", "z.score.t": 0.1767}
{"smiles": "CCCSc1ccc2nc(NC(=O)OC)[nH]c2c1", "note": "[Albendazole]", "z.score.t": "−1.079"}
{"smiles": "CCC(=O)OCC(=O)[C@@]1(OC(=O)CC)[C@H](C)C[C@H]2[C@H]3[C@H]([C@@H](O)C[C@@]21C)[C@@]1(C)C=CC(=O)C=C1C[C@H]3Cl", "note": "[Alclometasone dipropionate]", "z.score.t": 1.456}
{"smiles": "C=CC[N@@+]12CC[C@@]34c5ccccc5N5/C=C6/[C@H]7C[C@H]8[C@@]9(CC[N@@+]8(CC=C)C/C7=C/CO)c7ccccc7N(/C=C(/[C@@H](C[C@@H]31)/C(=C\\CO)C2)[C@H]54)[C@@H]69.[Cl-].[Cl-]", "note": "[Alcuronium chloride]", "z.score.t": "−0.8925"}
{"smiles": "CC(=O)OCC(=O)[C@H]1CC[C@H]2[C@@H]3CC[C@H]4C[C@H](O)CC[C@]4(C)[C@H]3C(=O)C[C@]12C", "note": "[Alfadolone acetate]", "z.score.t": 0.3651}
{"smiles": "NCCCCCC(=O)O", "note": "[Aminocaproic acid]", "z.score.t": "−0.4749"}
{"tested_on": "hPSC-SCs", "settings": "HTS viability of hPSC-SCs in the presence of 30 mM glucose; Prestwick library; Table S4"}
{"smiles": "Cc1ccc(Cl)c(Nc2ccccc2C(=O)O)c1Cl", "z.score.t": "−1.427"}
{"smiles": "CC(C)NCC(O)c1cc(O)cc(O)c1.CC(C)NCC(O)c1cc(O)cc(O)c1.O=S(=O)(O)O", "note": "(stereo not shown)", "z.score.t": 0.4451}
{"smiles": "O=C(O)Cc1cc(I)c(Oc2ccc(O)c(I)c2)c(I)c1", "z.score.t": 0.4486}
{"smiles": "CN(Cc1cnc2nc(N)nc(N)c2n1)c1ccc(C(=O)N[C@@H](CCC(=O)O)C(=O)O)cc1", "note": "(racemic) [Amethopterin (R,S)]", "z.score.t": 0.3845}
{"smiles": "CC(=O)NC(CC(=O)O)C(=O)O", "note": "(racemic) [Aspartic acid, N-acetyl (R,S)]", "z.score.t": 0.006455}
{"smiles": "O.Oc1cc(O)c2c(c1)OC(c1ccc(O)c(O)c1)C(O)C2", "note": "(racemic) [Catechin-(+, −) hydrate]", "z.score.t": 0.2361}
{"smiles": "OCC(O)CN1CCN(c2ccccc2)CC1", "note": "(racemic) [Dropropizine (R,S)]", "z.score.t": 0.7162}
{"smiles": "COCCc1ccc(OCC(O)CNC(C)C)cc1.COCCc1ccc(OCC(O)CNC(C)C)cc1.O=C(O)C(O)C(O)C(=O)O", "note": "(racemic) [Metoprolol-(+, −) (+)-tartrate salt]", "z.score.t": 1.223}
{"smiles": "CC(C)NCC(O)c1ccc(O)c(O)c1.Cl", "note": "(single isomer, unassigned; (-)) [(−)-Isoproterenol hydrochloride]", "z.score.t": "−0.1043"}
{"smiles": "CC(=O)NC1[C@@H](O)OC(CO)[C@@H](O)[C@H]1O[C@H](C)C(=O)O", "note": "(stereo in doubt) [Muramic acid, N-acetyl]", "z.score.t": 1.616}
{"smiles": "Nc1ccccc1S(N)(=O)=O", "note": "[2-Aminobenzenesulfonamide]", "z.score.t": 1.43}
{"smiles": "Clc1cnccn1", "note": "[2-Chloropyrazine]", "z.score.t": 0.2112}
{"smiles": "CC(=O)Nc1cc2ccccc2oc1=O", "note": "[3-Acetamidocoumarin]", "z.score.t": "−1.551"}
{"smiles": "CC(=O)c1cc2ccccc2oc1=O", "note": "[3-Acetylcoumarin]", "z.score.t": "−0.7757"}
{"smiles": "c1coc(CNc2ncnc3nc[nH]c23)c1", "note": "[6-Furfurylaminopurine]", "z.score.t": "−0.7183"}
{"smiles": "CC(C)(C)NC[C@@H](O)COc1cccc2c1CCCC2=O.Cl", "note": "[(+) -Levobunolol hydrochloride]", "z.score.t": 1.281}
{"smiles": "CC(C)NC[C@@H](O)c1ccc(O)c(O)c1.O=C(O)C(O)C(O)C(=O)O", "note": "[(+)-Isoproterenol (+)-bitartrate salt]", "z.score.t": 0.1019}
{"smiles": "COc1ccc2cc([C@@H](C)C(=O)[O-])ccc2c1.[Na+]", "note": "[(R) -Naproxen sodium salt]", "z.score.t": "−0.3895"}
{"smiles": "CC(C)NC[C@@H](O)COc1ccc(CC(N)=O)cc1", "note": "[(R)-(+)-Atenolol]", "z.score.t": "−0.9395"}
{"smiles": "CC(C)NC[C@@H](O)COc1cccc2ccccc12.Cl", "note": "[(R)-Propranolol hydrochloride]", "z.score.t": "−0.04682"}
{"smiles": "N[C@H]1CONC1=O", "note": "[(S)-(−)-Cycloserine]", "z.score.t": "−0.3729"}
{"smiles": "CC(C)(C)NC[C@H](O)COc1cccc2c1CCCC2=O.Cl", "note": "[(−) -Levobunolol hydrochloride]", "z.score.t": 0.8283}
{"smiles": "C=C[C@H]1CN2CC[C@H]1C[C@H]2[C@H](O)c1ccnc2ccccc12", "note": "[(−)-Cinchonidine]", "z.score.t": 1.595}
{"smiles": "COc1ccc(-c2cc(=O)c3c(O)cc(O)cc3o2)cc1", "note": "[Acacetin]", "z.score.t": "−0.03362"}
{"smiles": "CCCC(=O)Nc1ccc(OCC(O)CNC(C)C)c(C(C)=O)c1", "note": "(stereo not shown) [Acebutolol hydrochloride]", "z.score.t": 0.3206}
{"smiles": "O=C(O)COC(=O)Cc1ccccc1Nc1c(Cl)cccc1Cl", "note": "[Aceclofenac]", "z.score.t": 0.08508}
{"smiles": "COc1ccc2c(c1)c(CC(=O)OCC(=O)O)c(C)n2C(=O)c1ccc(Cl)cc1", "note": "[Acemetacin]", "z.score.t": "−1.873"}
{"smiles": "CC(=O)CC(c1ccc([N+](=O)[O-])cc1)c1c(O)c2ccccc2oc1=O", "note": "(stereo not shown) [Acenocoumarol]", "z.score.t": "−0.2425"}
{"smiles": "CC(=O)Nc1ccc(O)cc1", "note": "[Acetaminophen]", "z.score.t": "−0.3023"}
{"smiles": "CC(=O)Nc1nnc(S(N)(=O)=O)s1", "note": "[Acetazolamide]", "z.score.t": 0.8639}
{"smiles": "CC(=O)c1ccc(S(=O)(=O)NC(=O)NC2CCCCC2)cc1", "note": "[Acetohexamide]", "z.score.t": 0.5856}
{"smiles": "CC(=O)c1ccc2c(c1)N(CCCN(C)C)c1ccccc1S2.O=C(O)/C=C\\C(=O)O", "note": "[Acetopromazine maleate salt]", "z.score.t": 0.1979}
{"smiles": "CC(=O)Oc1ccccc1C(=O)Oc1ccccc1C(=O)O", "note": "[Acetylsalicylsalicylic acid]", "z.score.t": 0.3922}
{"smiles": "Nc1nc2c(ncn2COCCO)c(=O)[nH]1", "note": "[Acyclovir]", "z.score.t": 0.2916}
{"smiles": "NC12CC3CC(CC(C3)C1)C2.NC12CC3CC(CC(C3)C1)C2.O=C(O)/C=C/C(=O)O", "note": "[Adamantamine fumarate]", "z.score.t": "−0.4942"}
{"smiles": "CCN(CC)CCOC(=O)C(c1ccccc1)c1ccccc1", "note": "[Adiphenine hydrochloride]", "z.score.t": "−0.765"}
{"smiles": "COC(=O)C1=CO[C@@H](C)[C@H]2CN3CCc4c([nH]c5ccccc45)[C@@H]3C[C@H]12.Cl", "note": "[Ajmalicine hydrochloride]", "z.score.t": "−0.6111"}
{"smiles": "CCCCC(CC)CNC(=N)NC(=N)NCCCCCCNC(=N)NC(=N)NCC(CC)CCCC", "note": "(stereo not shown) [Alexidine dihydrochloride]", "z.score.t": "−1.733"}
{"smiles": "COc1cc2nc(N(C)CCCNC(=O)C3CCCO3)nc(N)c2cc1OC", "note": "(stereo not shown) [Alfuzosin hydrochloride]", "z.score.t": "−1.061"}
{"smiles": "C=CCN1CCCC1CNC(=O)c1cc2[nH]nnc2cc1OC", "note": "(stereo not shown) [Alizapride HCl]", "z.score.t": 0.5437}
{"smiles": "NC(=O)NC1NC(=O)NC1=O", "note": "(stereo not shown) [Allantoin]", "z.score.t": 0.8036}
{"smiles": "C=CCc1ccccc1OCC(O)CNC(C)C", "note": "(stereo not shown) [Alprenolol hydrochloride]", "z.score.t": "−0.2572"}
{"smiles": "CCCCC[C@H](O)/C=C/[C@H]1[C@H](O)CC(=O)[C@@H]1CCCCCCC(=O)O", "note": "[Alprostadil]", "z.score.t": 0.3375}
{"smiles": "C=CCSCC1Nc2cc(Cl)c(S(N)(=O)=O)cc2S(=O)(=O)N1", "note": "(stereo not shown) [Althiazide]", "z.score.t": "−0.1239"}
{"smiles": "CN(C)c1nc(N(C)C)nc(N(C)C)n1", "note": "[Altretamine]", "z.score.t": "−0.7567"}
{"smiles": "Nc1c(Br)cc(Br)cc1CN[C@H]1CC[C@H](O)CC1", "note": "[Ambroxol hydrochloride]", "z.score.t": 0.837}
{"smiles": "Cc1c(N(C)C)c(=O)n(-c2ccccc2)n1C", "note": "[Amidopyrine]", "z.score.t": "−0.2278"}
{"smiles": "NCC[C@H](O)C(=O)N[C@@H]1C[C@H](N)[C@@H](O[C@H]2O[C@H](CN)[C@@H](O)[C@H](O)[C@H]2O)[C@H](O)[C@H]1O[C@H]1O[C@H](CO)[C@@H](O)[C@H](N)[C@H]1O", "note": "[Amikacin hydrate]", "z.score.t": "−0.4543"}
{"smiles": "N=C(N)NC(=O)c1nc(Cl)c(N)nc1N", "note": "[Amiloride hydrochloride dihydrate]", "z.score.t": 0.07016}
{"smiles": "Nc1ccc(C(=O)NCC(=O)O)cc1", "note": "[Aminohippuric acid]", "z.score.t": 0.8825}
{"smiles": "Cn1c(=O)c2[nH]cnc2n(C)c1=O", "note": "[Aminophylline]", "z.score.t": 1.208}
